The source of these data is US9278131B2, “Process for lowering the viscosity of highly concentrated protein solutions” (ADOCIA, priority 2012, dated 2016).

The test system of series [1] is infliximab. The series is described as follows: viscosity of highly concentrated infliximab solution, cone/plate rheometer at 21° C. It is filed as physicochemical. The conditions noted are these: for % viscosity reduction relative to the control infliximab solution: Table V. From the text:
(§1) For this example, three solutions of monoclonal antibodies, i.e. a solution of bevacizumab (an IgG1 sold under the name Avastin® by Genentech/Hoffmann La Roche), a solution of infliximab (an IgG1/K sold under the name Remicade® by Schering-Plough), a solution of rituximab (an IgG1/K sold under the name mAbThera® by Hoffmann La Roche) and a solution of fusion protein, i.e. a solution of abatacept (IgG1-CTLA4 sold under the name Orencia® by Bristol-Meyers Squibb), were concentrated by ultrafiltration on Amicon® Ultra-15 filtration units with a cutoff threshold of 50 kDa.
(§2) The protein concentration of each concentrated solution was measured by UV spectroscopy (absorbance at 280 nm) after gravimetric dilution of the samples.
(§3) The effect of RVs 2 and 9 on the viscosity of these four highly concentrated therapeutic protein solutions was then evaluated comparatively with that of Arg and NaCl.
(§4) The samples thus prepared were stored at room temperature and were analyzed using the rheometer within 24 hours of their preparation.
(§5) The pH of these formulations is the same as that of the commercial formulation of the corresponding therapeutic protein.
(§6) In this study, the highly concentrated infliximab and rituximab solutions used are the same as those which were prepared and used previously. […] The pH of these formulations is the same as that of the corresponding therapeutic protein formulation, i.e. 7.2±0.2 for infliximab, and 6.5±0.2 for rituximab.
The highly concentrated infliximab solution used is the same as that which was prepared and used previously. The “protein+RV” formulations were prepared in the presence of concentrations increasing from 0 to 200 mM of Arg or RV 9. The pH of these formulations is the same as that of the commercial infliximab formulation, i.e. 7.2±0.2.
The highly concentrated infliximab solution used is the same as that which was prepared and used previously.
The pH of these formulations is the same as that of the commercial infliximab formulation, i.e. 7.2±0.2.
The highly concentrated infliximab solution used was prepared in the same manner as that used previously. […] The pH of these formulations is the same as that of the commercial infliximab formulation, i.e. 7.2±0.2.

In a further series the test system is rituximab. As to the kind of experiment: viscosity of highly concentrated rituximab solution, cone/plate rheometer. It counts as physicochemical. The note with it: rituximab 196 mg/mL, 150 mM additive.
Description: as §1, §2
The solutions of rituximab (10 mg/mL) and of bevacizumab (25 mg/mL) were concentrated, respectively, to 320 mg/mL and 240 mg/mL.
as §3, §4, §5, §6

For another series, the system named is anti-IL5 antibody. The note with it: tyrosine 0.004% w/v, i.e. 0.2 mM; WO 2012/141 978; cited from earlier work.
Series [2] relates to trastuzumab. As to the kind of experiment: viscosity of highly concentrated trastuzumab formulation, cone/plate rheometer at 25° C. (example 7). The conditions noted are these: Table VII; trastuzumab 200 mg/mL, 150 mM additive, pH 6 ± 0.2, 25° C. It is filed as physicochemical. The method, then:
For this example, two monoclonal antibody formulations, i.e. infliximab and trastuzumab (an IgG1/κ sold under the name Herceptin® by Genentech) were concentrated by ultrafiltration on Amicon® Ultra-50 centrifugal filtration units with a cutoff threshold of 50 kDa. The protein concentration of each concentrated solution was measured by UV spectroscopy (absorbance at 280 nm) after gravimetric dilution of the samples.
Once reconstituted, the infliximab and trastuzumab formulations were concentrated, respectively, to 212 mg/mL and 277 mg/mL.
The effect of RVs 2 and 11 on the viscosity of these two highly concentrated therapeutic protein formulations was then evaluated comparatively to that of Arg and NaCl. To do this, the viscosity was measured using a cone/plate rheometer (TA Instrument, AR 2000 Ex, geometry of diameter 20 mm, cone of 0.5131°, solvent trap filled with water) at a temperature of 25° C. and in flow sweep mode with shear rates of between 5000 and 50 s^−1 (3 points per decade—steady-state sensing). […]

The target of another series is T1, abatacept (Homo sapiens, UniProt P16410).
T1 construct: a fragment of a protein of interest which is the extracellular domain of the receptor of protein CTLA-4; purchased Bristol-Meyers Squibb (Orencia)
As to the kind of experiment: viscosity of highly concentrated abatacept (fusion protein) solution, cone/plate rheometer. It is filed as physicochemical. The conditions noted are these: Table I; abatacept 230 mg/mL, 150 mM additive, pH 7.5 ± 0.5, 21° C.
Description: as §1, §2
(§7) The effect of RVs 2 and 9 on the viscosity of these four highly concentrated therapeutic protein solutions was then evaluated comparatively with that of Arg and NaCl. To do this, the viscosity was measured using a cone/plate rheometer (TA Instrument, AR 2000 Ex, geometry of diameter 20 mm, cone of 0.5131°, solvent trap filled with water) at a temperature of 21° C. and in flow sweep mode with shear rates of between 5000 and 50 s^−1 (3 points per decade—steady-state sensing). […]

In series [3] the test system is infliximab. The series is described as follows: viscosity of highly concentrated infliximab formulation, cone/plate rheometer at 25° C. (example 7). The note with it: Table VII; infliximab 125 mg/mL, 150 mM additive, pH 7.2 ± 0.2, 25° C. It is filed as physicochemical. The method, then:
For this example, two monoclonal antibody formulations, i.e. infliximab and trastuzumab (an IgG1/κ sold under the name Herceptin® by Genentech) were concentrated by ultrafiltration on Amicon® Ultra-50 centrifugal filtration units with a cutoff threshold of 50 kDa. The protein concentration of each concentrated solution was measured by UV spectroscopy (absorbance at 280 nm) after gravimetric dilution of the samples. […]
The effect of RVs 2 and 11 on the viscosity of these two highly concentrated therapeutic protein formulations was then evaluated comparatively to that of Arg and NaCl. To do this, the viscosity was measured using a cone/plate rheometer (TA Instrument, AR 2000 Ex, geometry of diameter 20 mm, cone of 0.5131°, solvent trap filled with water) at a temperature of 25° C. and in flow sweep mode with shear rates of between 5000 and 50 s^−1 (3 points per decade—steady-state sensing).
For this example, the “protein+RV” formulations were prepared by mixing a solution of RV at about 1 M obtained in example 1 with one of the concentrated infliximab and trastuzumab formulations prepared previously and the corresponding buffer so as to reach a final RV concentration of 150 mM and a final protein concentration of 125 mg/mL for infliximab and 200 mg/mL for trastuzumab. […]

A further series deals with bevacizumab. As to the kind of experiment: viscosity of highly concentrated bevacizumab solution, cone/plate rheometer. It counts as physicochemical. The note with it: Table I; bevacizumab 250 mg/mL, 150 mM additive, pH 6.2 ± 0.2, 21° C.
Description: as §1
The protein concentration of each concentrated solution was measured by UV spectroscopy (absorbance at 280 nm) after gravimetric dilution of the samples. […]
as §7

In series [4] the test system is trastuzumab. The note with it: phenylalanine 0.2%, i.e. 12 mM; trastuzumab 300 mg/mL; WO 2013/063 510; cited from earlier work.
Where [5] appears, read: Table II, infliximab 107 mg/mL, 150 mM additive, pH 7.2 ± 0.2.

T1 sequence (P16410 with tags, fused parts or gaps limits assumed): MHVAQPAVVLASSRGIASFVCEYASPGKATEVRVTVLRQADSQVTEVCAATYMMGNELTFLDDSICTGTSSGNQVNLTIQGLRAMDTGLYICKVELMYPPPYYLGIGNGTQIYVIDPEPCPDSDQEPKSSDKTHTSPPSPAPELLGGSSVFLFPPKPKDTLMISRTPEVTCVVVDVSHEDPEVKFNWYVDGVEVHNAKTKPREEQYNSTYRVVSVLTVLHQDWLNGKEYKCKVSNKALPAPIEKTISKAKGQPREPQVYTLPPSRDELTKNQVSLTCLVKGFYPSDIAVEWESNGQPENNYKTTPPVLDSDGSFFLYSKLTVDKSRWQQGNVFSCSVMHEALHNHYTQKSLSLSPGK

Turning to `Cl.NCCc1ccccc1` [RV 6, 2-phenylethylamine hydrochloride salt], the “% viscosity reduction relative to the control “protein alone”” value in the series with infliximab [1] (setting [5]) is reported as 38%; in the series with rituximab (Table III, pH 6.5 ± 0.2), 39%.

Consider `Cl.NC(Cc1ccccc1)C(=O)NCCO` (stereo not drawn) [RV 2, (2S-2-amino(3-phenylpropanoyl)amino)-ethanol hydrochloride salt], for which the “% viscosity reduction relative to the control “protein alone”” value with infliximab [1] (setting [5]) turned out to be 56%; in the series with rituximab (Table III, pH 6.5 ± 0.2), 43%.

As for `C[N+](C)(C)Cc1ccccc1.[Cl-]` [RV 5, benzyltrimethylammonium chloride], the “% viscosity reduction relative to the control “protein alone”” value in the series on infliximab [1] (setting [5]) was 49%; with rituximab (Table III, pH 6.5 ± 0.2), 38%.

As for `N[C@@H](Cc1ccc(O)cc1)C(=O)O` [tyrosine], the “increase of the viscosity of the anti-IL5 antibody solution” value with anti-IL5 antibody is given as 44%.

In the case of `Cl.N[C@H](CO)Cc1ccccc1` [RV 4, (S)-(−)-2-amino-3-phenyl-1-propanol hydrochloride salt], the “% viscosity reduction relative to the control “protein alone”” value with infliximab [1] (setting [5]) was 36%; in the series with rituximab (Table III, pH 6.5 ± 0.2), 37%.

As for `[Cl-].[Na+]` [NaCl, sodium chloride], the “% of viscosity reduction relative to the control “protein alone”” value with trastuzumab [2] is given as 38%; with infliximab [3], “≦0%”. The “% viscosity reduction relative to the control “protein alone”” value is recorded as “≦0%” with infliximab [1] (Table I, infliximab 107 mg/mL, 150 mM additive, pH 7.2 ± 0.2, 21° C.); “≦0%” in the series on infliximab [1] (setting [5]); 7% on abatacept; 21% in the series with rituximab (Table I, pH 6.5 ± 0.2, 21° C.); 21% in the series on rituximab (Table III, pH 6.5 ± 0.2); “≦0%” in the series on bevacizumab.

For the molecule `Cl.NC(=O)[C@@H](N)Cc1ccccc1` [RV 9, L-phenylalaninamide hydrochloride salt], the “% viscosity reduction relative to the control “protein alone”” value in the series with infliximab [1] (setting [5]) stood at 52%; in the series on infliximab [1] (Table IV, infliximab 107 mg/mL, additive 25 mM, pH 7.2 ± 0.2), 19%; in the series with infliximab [1] (Table IV, infliximab 107 mg/mL, additive 50 mM, pH 7.2 ± 0.2) it was 31%; with infliximab [1] (Table IV, infliximab 107 mg/mL, additive 100 mM, pH 7.2 ± 0.2), 41%; in the series on infliximab [1] (Table IV, infliximab 107 mg/mL, additive 150 mM, pH 7.2 ± 0.2) it was 44%; in the series on infliximab [1] (Table IV, infliximab 107 mg/mL, additive 200 mM, pH 7.2 ± 0.2), 56%. Further, the “% viscosity reduction relative to the control “protein alone”” value in the series on rituximab (Table III, pH 6.5 ± 0.2) was determined as 48%. Also, the “% viscosity reduction relative to the control infliximab solution” value is listed as 50% with infliximab [1] (infliximab 80 mg/mL, additive at 150 mM, pH 7.2 ± 0.2); 52% in the series with infliximab [1] (infliximab 90 mg/mL, additive at 150 mM, pH 7.2 ± 0.2); 55% with infliximab [1] (infliximab 100 mg/mL, additive at 150 mM, pH 7.2 ± 0.2); 49% with infliximab [1] (infliximab 110 mg/mL, additive at 150 mM, pH 7.2 ± 0.2). Further, in the series on infliximab [1] (average over infliximab 80-110 mg/mL, additive at 150 mM), the “viscosity lowering on average, irrespective of the infliximab concentration” value is recorded as “about 52%”. Also, the “concentration sufficient to obtain a viscosity reduction equivalent to that obtained using Arg at 150 mM” value with infliximab [1] (infliximab 107 mg/mL) was 50000 µM. Besides, the “efficiency in viscosity reduction relative to Arg” value with infliximab [1] (infliximab 107 mg/mL, at 100 mM) was “about 4 times”; in the series with infliximab [1] (infliximab 107 mg/mL, at 150 mM), “twice as efficient as Arg”.

Take `Cl.NCCc1ccc(O)c(O)c1` [RV 7, dopamine hydrochloride salt]: the “% viscosity reduction relative to the control “protein alone”” value was determined as 38% in the series on infliximab [1] (setting [5]) and 39% with rituximab (Table III, pH 6.5 ± 0.2).

With `N[C@@H](Cc1ccccc1)C(=O)O` [phenylalanine], in the series with trastuzumab [4], the “increase of the viscosity of a trastuzumab formulation” value is on record as 83%.

With `Cl.NCCOc1ccccc1` [RV 8, 2-phenoxyethylamine hydrochloride salt], the “% viscosity reduction relative to the control “protein alone”” value was 46% in the series with infliximab [1] (setting [5]) and 52% in the series on rituximab (Table III, pH 6.5 ± 0.2).
